The values below come from the SangsterLogP compilation.

This data set is described as follows: method code SF-GLC, from DOI: 10.1584/jpestics.5.553.

What is called logP is a log measure of how a compound divides between an organic and an aqueous phase. Low values mean lower lipophilicity, high ones higher lipophilicity. `CCCOC(=O)C(C(=O)OCCC)=C1SCCS1`: the lipophilicity (logP) is 3.38. As to `CCCCOC(=O)C(C(=O)OCCCC)=C1SCCS1`, the logP was found to be 4.6.

As for `CCOC(=O)C(C(=O)OC(C)C)=C1SCCS1`, the logP turned out to be 2.9. With `CCCCCOC(=O)C(C(=O)OCCCCC)=C1SCCS1` the figure was 5.6; with `CSC(SC)=C(C(=O)OC(C)C)C(=O)OC(C)C`, 3.38. Next, `CC(C)OC(=O)C(C(=O)OC(C)C)=C1SCCS1=O` (stereo not given): 1.6; `CCOC(=O)C(C(=O)OCC)=C1SCCS1`: 2.45; `CC(C)(C)OC(=O)C(C(=O)OC(C)(C)C)=C1SCCS1`: 4.01. Next, `COC(=O)C(C(=O)OC)=C1SCCS1`: 1.51; `CCCCCCCOC(=O)C(C(=O)OCCCCCCC)=C1SCCS1`: 7.6.
